# Laboratory results published in patent US11969402B2, “Compositions and methods for skin rejuvenation” (THE JOHNS HOPKINS UNIVERSITY, priority 2019, dated 2024).
# Assays:
# [1] = test system: Wound Induced Hair Neogenesis (WIHN); test: Wound Induced Hair Neogenesis (WIHN), regenerated hair follicles counted by CSLM; type: in vivo, mouse
# Protocol: Wound Induced Hair Neogenesis (WIHN). All experiments were followed with the present inventors' WIHN protocol^1,9. Briefly, hair was shaved and a 1.2 cm^2 full-thickness skin on the backs of 21-day old (telogen) male and female mice was removed by sterile scissors. A single treatment of RA (30 μl) (0.1 μg per mouse) (Millipore Sigma, R2625) and BMS493 (30 μl) (0.1 μg per mouse) (Cayman Chemical, #17418) was applied topically onto open wound on WD1 of Tlr3^−/− and WT mice, respectively. Poly (I:C) (50 μl) (5 μg per mouse) (Invivogen, tlrl-pic) was injected under the healed scab on WD3 of WT mice as described before^9,34. On WD20-24, numbers of regenerated hair follicles were visualized and quantified in the re-epithelialized skin by non-invasive confocal scanning laser microscopy (CSLM) (Caliber I.D., VIVASCOPE 1500) as published^1,9. As a vehicle (Control), ethanol (EtOH), dimethylsulfoxide (DMSO), or PBS was treated for RA, BMS493, and Poly (I:C), respectively.
# [2] = test system: normal human keratinocytes; test: Transcriptome and proteome comparison of keratinocytes treated with Poly (I:C) or RA; type: cell-based; conditions: for identical gene transcripts inhibited by Poly (I:C) and RA: overlap of top ranked 100 downregulated transcripts; for identical gene transcripts induced by Poly (I:C) and RA: overlap of top ranked 100 upregulated transcripts; for overlap of inhibited proteins between Poly (I:C) and RA: top ranked 100 downregulated proteins; for overlap of induced proteins between Poly (I:C) and RA: top ranked 100 upregulated proteins
# Source text: Microarray analysis. RNA isolated from keratinocytes with or without Poly (I:C) (GSE92646) and mouse wound tissues from wild type (C57BL/6NJ) and Tlr3^−/− with BMS493 and RA were submitted to the JHMI Deep Sequencing & Microarray core for Affymetrix® Human Exon 1.0ST and mouse microarray chip according to manufacturer's protocols. Raw gene expression signals in the form of Affymetrix CEL files were extracted and normalized with Partek® Genomics Suite™ software using the Robust Multichip Analysis (RMA) algorithm. Genes were ranked according to fold change of the intervention, and referred to as top or bottom induced if they are at the highest fold change (top) or lowest fold change (bottom). The significance of gene expression was measured by student's t-test analysis. These datasets generated during the current study are available in the NCBI GEO repository as listed above.
# Proteomic analysis. For in vivo samples, wild-type and Tlr3^−/− unwounded and wounded skin where wound regions (center and edge area) were prepared for analysis. For in vitro samples, human primary scalp keratinocytes treated with 0.1 μM retinoic acid (RA) or 0.5 μg per ml Poly (I:C) and control were used. In vivo and in vitro samples were lysed in 5% sodium deoxycholate after washing in phosphate-buffered saline. Lysates were washed, reduced, alkylated and trypsinolyzed on filter as described by Wisniewski et al.^35 and Erde et al.^36. Tryptic peptides were separated on a nanoACQUITY UPLC analytical column (BEH130 C18, 1.7 μm, 75 μm×200 mm, Waters) over a 165 min linear acetonitrile gradient (3-40%) with 0.1% formic acid on a Waters nano-ACQUITY UPLC system, and analyzed on a coupled Thermo Scientific Orbitrap Fusion Tribrid mass spectrometer as described by Williamson et al.^37. Full scans were acquired at a resolution of 120,000, and precursors were selected for fragmentation by higher-energy collisional dissociation (normalized collision energy at 30%) for a maximum 3-second cycle. Tandem mass spectra were searched against a UniProt human reference proteome using MS Amanda algorithm described by Dorfer et al.^38 with a maximum precursor mass error tolerance of 10 ppm. Carbamidomethylation of cysteine and deamidation of asparagine and glutamine were treated as static and dynamic modifications, respectively. Resulting hits were validated at a maximum false discovery rate of 0.01 using a semi-supervised machine learning algorithm Percolator developed by Käll et al.^39. Protein abundance ratios were measured by comparing the MS1 peak volumes of peptide ions, whose identities were confirmed by MS2 sequencing as described above. The Label-free quantifications were performed using an aligned AMRT (Accurate Mass and Retention Time) cluster quantification algorithm Minora (Thermo Fisher Scientific, 2017). Pathway and gene ontology analysis were performed with Qiagen Ingenuity, Panther GO and DAVID databases, as described by Kramer et al.^40, Mi et al.^41, and Huang et al.^42, respectively.
# [3] = test system: human scalp keratinocytes; test: Western blot / immunostaining of ALDH1A3, KRT15, KRT19 in human keratinocytes; type: cell-based; conditions: for ALDH1A3 protein: human keratinocytes, western blot
# Protocol: BMS493 treatment. BMS493 pan-RARs antagonist (1 μM) was pre-treated into keratinocytes for an hour and cells were incubated with RA (0.1 μM and 0.5 μM for human and mouse keratinocytes, respectively) or Poly (I:C) (0.1 μg per ml for both human and mouse keratinocytes) for 48 hrs. At the end of the experiment, cells were harvested for RNA and protein extraction to do further analysis including qRT-PCR and western blot.
# Western blot analysis. Human and mouse keratinocytes were disrupted in M-PER lysis buffer (Thermo Fisher Scientific, #78501) containing protease inhibitors (Thermo Fisher Scientific, #87786) using ultrasonic homogenizer (20% power with 5 times every 2 seconds) to extract proteins. Then, protein concentrations were determined by BCA method (Thermo Fisher Scientific, #23225). Western blot procedures were followed by the protocol of NuPAGE system (Thermo Fisher Scientific). Briefly, 20 μg of protein samples were loaded for electrophoresis and transferred to polyvinylidene di-fluoride (PVDF) membrane (Bio-Rad, Hercules, CA). After blocking for at least an hour in 5% non-fat dry milk, the membrane was incubated with primary antibodies with appropriate dilutions (Table 2) at 4° C. overnight and followed by incubation with secondary antibodies for 1 hour at room temperature. Protein amounts were normalized to rabbit polyclonal anti-human β-actin antibody (1:1,000 dilution) (Cell Signaling Technology). Finally, proteins were visualized using SuperSignal West Pico PLUS chemiluminescent substrate kit (Thermo Fisher Scientific, #34577) and saved as image files using ChemiDoc XRS^+ (Bio-Rad). The signal intensity of protein was quantified using Image Lab software (Bio-Rad). Original images of representative blots were provided in the Source data file.
# Immunofluorescence. For tissues, frozen-sections of mouse skin samples were stained with primary antibodies with appropriate dilution at 4° C. overnight, followed by incubation with goat anti-rabbit IgG labeled with Alexa Flour® 488 (Life Technologies) and 594 (Life Technologies) for 1 hour at room temperature. For cells, keratinocytes (3×10^5 cells) plated on cover-slip were fixed with 4% Paraformaldehyde (PFA) for 10 min, permeabilized in PBS including 0.5% Triton X-100 for 15 min at room temperature. After washing with PBS 3 times, cells were stained with primary antibodies overnight at 4° C., followed by incubation with goat anti-rabbit or mouse IgG labeled with Alexa Flour® 488 for 1 hour at room temperature. Cell nuclei were visualized by mounting medium including DAPI (Vector Laboratories, Burlingame, CA, H-1200). Fluorescence images were observed by fluorescence microscopy (Leica microsystems), taken pictures with ×100 (low magnification) and ×200 (high magnification), and saved as image files.
Compound,"hair follicle regeneration (WIHN) ([1]; Tlr3−/− mice, topical 0.1 μg per mouse on WD1)","WIHN ([1]; WT mice, supraphysiologic doses of RA)",identical gene transcripts inhibited by Poly (I:C) and RA [2],identical gene transcripts induced by Poly (I:C) and RA [2],overlap of inhibited proteins between Poly (I:C) and RA [2],overlap of induced proteins between Poly (I:C) and RA [2],ALDH1A3 protein [3],"hair follicle regeneration (WIHN) ([1]; MDA5−/− mice, similar to WT)","new hair follicle formation (WIHN) ([1]; WT mice, single injection 5 μg per mouse on WD3)","ALDH1A3, KRT15 and KRT19 protein expression ([3]; human keratinocytes following Poly (I:C) stimulation)"
"CC1=C(/C=C/C(C)=C/C=C/C(C)=C/C(=O)O)C(C)(C)CCC1 [RA, all-trans-retinoic acid]",modestly increased,do not modify,18%,13%,36%,61%,robustly increased,,,
Polyinosinic-polycytidylic acid [Poly (I:C)],,,18%,13%,36%,61%,robustly increased,induces hair follicle regeneration,stimulates new hair follicle formation,upregulated
